# Literature values as cited in US10426749B2, “Safflower oil emulsion as dietary supplement and preparation thereof” (INNOVITAMIN ORGANICS, LLC, priority 2011, dated 2019).
# Test system: post-menopausal, obese women with type 2 diabetes
# Settings: 8 grams daily for 16 weeks
substance,measurement,value
conjugated linoleic acid [CLA],"metabolic parameters (trunk fat mass, HDL cholesterol, fasting glucose, insulin sensitivity, C-reactive protein)",did not significantly alter
